In PubChem BioAssay AID1259407 (Chemical Carcinogenesis Research Information System (CCRIS), 2018):
Calls of active or inactive are those of the source. No rule for the calls is given here.

Tested on: CCRIS mutagenicity, Ames/micronucleus/aberration tests
Experiment: CCRIS mutagenicity studies
[1] = Test System: AMES SALMONELLA TYPHIMURIUM, Strain/Indicator: TA98, Metabolic Activation: NONE, Method: STANDARD PLATE
[2] = Test System: AMES SALMONELLA TYPHIMURIUM, Strain/Indicator: TA100, Metabolic Activation: NONE, Method: STANDARD PLATE
[3] = Test System: AMES SALMONELLA TYPHIMURIUM, Strain/Indicator: TA98, Metabolic Activation: RAT, LIVER, S-9, AROCLOR 1254, Method: STANDARD PLATE
[4] = Test System: AMES SALMONELLA TYPHIMURIUM, Strain/Indicator: TA100, Metabolic Activation: RAT, LIVER, S-9, AROCLOR 1254, Method: STANDARD PLATE

With CCC[N+](=O)[O-] the mutagenic call (Test System: AMES SALMONELLA TYPHIMURIUM, Strain/Indicator: TA98, Metabolic Activation: RAT LIVER S-9, PHENOBARBITAL AND BETA-NAPHTHOFLAVONE, Method: PREINCUBATION) was “inactive; negative”, the mutagenic call (Test System: AMES SALMONELLA TYPHIMURIUM, Strain/Indicator: TA98, Metabolic Activation: RAT, LIVER, S-9, AROCLOR, Method: PREINCUBATION) was “inactive; negative” and the mutagenic call (Test System: AMES SALMONELLA TYPHIMURIUM, Strain/Indicator: TA98, Metabolic Activation: RAT, LIVER, S-9, CLOPHEN A-50, Method: PREINCUBATION) was “inactive; negative”. The mutagenic call (Test System: AMES SALMONELLA TYPHIMURIUM, Strain/Indicator: TA98, Metabolic Activation: RAT, LIVER, S-9, KANECHLOR 500, Method: PREINCUBATION) was “inactive; negative”, the mutagenic call (Test System: AMES SALMONELLA TYPHIMURIUM, Strain/Indicator: TA100, Metabolic Activation: RAT LIVER S-9, PHENOBARBITAL AND BETA-NAPHTHOFLAVONE, Method: PREINCUBATION) was “inactive; negative” and the mutagenic call (Test System: AMES SALMONELLA TYPHIMURIUM, Strain/Indicator: TA100, Metabolic Activation: RAT, LIVER, S-9, AROCLOR, Method: PREINCUBATION) was “inactive; negative”. For the same molecule, the mutagenic call (Test System: AMES SALMONELLA TYPHIMURIUM, Strain/Indicator: TA100, Metabolic Activation: RAT, LIVER, S-9, CLOPHEN A-50, Method: PREINCUBATION) was “inactive; negative”, the mutagenic call (Test System: AMES SALMONELLA TYPHIMURIUM, Strain/Indicator: TA100, Metabolic Activation: RAT, LIVER, S-9, KANECHLOR 500, Method: PREINCUBATION) was “inactive; negative” and the mutagenic call (Test System: AMES SALMONELLA TYPHIMURIUM, Strain/Indicator: TA102, Metabolic Activation: NONE, Method: PREINCUBATION) was “inactive; negative”. For the same molecule, the mutagenic call (Test System: AMES SALMONELLA TYPHIMURIUM, Strain/Indicator: TA102, Metabolic Activation: RAT LIVER S-9, PHENOBARBITAL AND BETA-NAPHTHOFLAVONE, Method: PREINCUBATION) was “inactive; negative”, the mutagenic call (Test System: AMES SALMONELLA TYPHIMURIUM, Strain/Indicator: TA102, Metabolic Activation: RAT, LIVER, S-9, AROCLOR, Method: PREINCUBATION) was “inactive; negative” and the mutagenic call (Test System: AMES SALMONELLA TYPHIMURIUM, Strain/Indicator: TA104, Metabolic Activation: NONE, Method: PREINCUBATION) was “inactive; negative”. The mutagenic call (Test System: AMES SALMONELLA TYPHIMURIUM, Strain/Indicator: TA104, Metabolic Activation: RAT LIVER S-9, PHENOBARBITAL AND BETA-NAPHTHOFLAVONE, Method: PREINCUBATION) was “inactive; negative”, the mutagenic call (Test System: AMES SALMONELLA TYPHIMURIUM, Strain/Indicator: TA1535, Metabolic Activation: NONE, Method: PREINCUBATION) was “inactive; negative” and the mutagenic call (Test System: AMES SALMONELLA TYPHIMURIUM, Strain/Indicator: TA1535, Metabolic Activation: RAT LIVER S-9, PHENOBARBITAL AND BETA-NAPHTHOFLAVONE, Method: PREINCUBATION) was “inactive; negative”. The mutagenic call (Test System: AMES SALMONELLA TYPHIMURIUM, Strain/Indicator: TA1537, Metabolic Activation: NONE, Method: PREINCUBATION) was “inactive; negative”, the mutagenic call (Test System: AMES SALMONELLA TYPHIMURIUM, Strain/Indicator: TA1537, Metabolic Activation: RAT LIVER S-9, PHENOBARBITAL AND BETA-NAPHTHOFLAVONE, Method: PREINCUBATION) was “inactive; negative” and the mutagenic call (Test System: CHINESE HAMSTER V-79, Strain/Indicator: V-79/6-THIOGUANINE, Metabolic Activation: NONE, Method: STANDARD PLATE) was “active; positive”. For the same molecule, the mutagenic call (Test System: E. COLI, Strain/Indicator: WP2 UVRA (PKM101), Metabolic Activation: NONE, Method: PREINCUBATION) was “inactive; negative”, the mutagenic call (Test System: E.COLI, Strain/Indicator: WP2UVRA/PKM101, Metabolic Activation: NONE, Method: PREINCUBATION) was “inactive; negative” and the mutagenic call (Test System: E.COLI, Strain/Indicator: WP2UVRA/PKM101, Metabolic Activation: RAT LIVER S-9, PHENOBARBITAL AND BETA-NAPHTHOFLAVONE, Method: PREINCUBATION) was “inactive; negative”. For the same molecule, the mutagenic call (Test System: E.COLI, Strain/Indicator: WP2UVRA, Metabolic Activation: NONE, Method: PREINCUBATION) was “inactive; negative”, the mutagenic call (Test System: E.COLI, Strain/Indicator: WP2UVRA, Metabolic Activation: RAT LIVER S-9, PHENOBARBITAL AND BETA-NAPHTHOFLAVONE, Method: PREINCUBATION) was “inactive; negative” and the mutagenic call (Test System: UDS RAT HEPATOCYTES, Strain/Indicator: THY INCORP, Metabolic Activation: NONE) was “inactive; negative”. For the same molecule, the mutagenic call (Test System: UDS RODENT HEPATOCYTES, Strain/Indicator: THY INCORP (NON-S-PHASE), Metabolic Activation: NONE, Method: PREINCUBATION) was “inactive; negative”.

In the case of COc1ccc(-c2nc(-c3ccc(C)cc3C)[nH]c2-c2ccc(OC)cc2)cc1, the mutagenic call [1] is reported as “active; positive”, the mutagenic call (Test System: AMES SALMONELLA TYPHIMURIUM, Strain/Indicator: TA98, Metabolic Activation: RAT LIVER S-9, 3-METHYLCHOLANTHRENE, SODIUM PHENOBARBITAL, Method: STANDARD PLATE) is reported as “inactive; negative” and the mutagenic call [2] is reported as “active; positive”. For the same molecule, the mutagenic call (Test System: AMES SALMONELLA TYPHIMURIUM, Strain/Indicator: TA100, Metabolic Activation: RAT LIVER S-9, 3-METHYLCHOLANTHRENE, SODIUM PHENOBARBITAL, Method: STANDARD PLATE) was “inactive; negative”.

For O=C(O)c1ccc(ON2P(Oc3ccc(C(=O)O)cc3)N=P(Oc3ccc(C(=O)O)cc3)(Oc3ccc(C(=O)O)cc3)N(Oc3ccc(C(=O)O)cc3)P2Oc2ccc(C(=O)O)cc2)cc1 (stereo not given), the mutagenic call [1] was “inactive; negative”, the mutagenic call [3] was “inactive; negative” and the mutagenic call [2] was “inactive; negative”. For the same molecule, the mutagenic call [4] was “inactive; negative”.

For COC1=CC(=O)c2c(nc(C)c3c2[nH]c2ccccc23)C1=O, the mutagenic call (Test System: AMES SALMONELLA TYPHIMURIUM, Strain/Indicator: TA97, Metabolic Activation: NONE, Method: STANDARD PLATE) was “active; positive”, the mutagenic call (Test System: AMES SALMONELLA TYPHIMURIUM, Strain/Indicator: TA97, Metabolic Activation: RAT, LIVER, S-9, AROCLOR 1254, Method: STANDARD PLATE) was “active; positive” and the mutagenic call (Test System: AMES SALMONELLA TYPHIMURIUM, Strain/Indicator: TA97A, Metabolic Activation: NONE, Method: STANDARD PLATE) was “active; positive”. The mutagenic call (Test System: AMES SALMONELLA TYPHIMURIUM, Strain/Indicator: TA97A, Metabolic Activation: RAT LIVER S-9, AROCLOR 1254, Method: STANDARD PLATE) was “active; positive”, the mutagenic call [1] was “active; positive” and the mutagenic call (Test System: AMES SALMONELLA TYPHIMURIUM, Strain/Indicator: TA98, Metabolic Activation: RAT LIVER S-9, AROCLOR 1254, Method: STANDARD PLATE) was “active; positive”. The mutagenic call [3] was “active; positive”, the mutagenic call [2] was “active; positive” and the mutagenic call (Test System: AMES SALMONELLA TYPHIMURIUM, Strain/Indicator: TA100, Metabolic Activation: RAT LIVER S-9, AROCLOR 1254, Method: STANDARD PLATE) was “active; positive”. For the same molecule, the mutagenic call [4] was “active; positive”, the mutagenic call (Test System: AMES SALMONELLA TYPHIMURIUM, Strain/Indicator: TA102, Metabolic Activation: RAT LIVER S-9, AROCLOR 1254, Method: STANDARD PLATE) was “inactive; negative” and the mutagenic call (Test System: AMES SALMONELLA TYPHIMURIUM, Strain/Indicator: TA102, Metabolic Activation: RAT, LIVER, S-9, AROCLOR 1254, Method: STANDARD PLATE) was “inactive; negative”.
